Reference: article PMC3904457 (ACS medicinal chemistry letters, 2013)

Target: T1, COX-1 (Ovis aries, UniProt P05979)
T1 sequence (P05979 25-600): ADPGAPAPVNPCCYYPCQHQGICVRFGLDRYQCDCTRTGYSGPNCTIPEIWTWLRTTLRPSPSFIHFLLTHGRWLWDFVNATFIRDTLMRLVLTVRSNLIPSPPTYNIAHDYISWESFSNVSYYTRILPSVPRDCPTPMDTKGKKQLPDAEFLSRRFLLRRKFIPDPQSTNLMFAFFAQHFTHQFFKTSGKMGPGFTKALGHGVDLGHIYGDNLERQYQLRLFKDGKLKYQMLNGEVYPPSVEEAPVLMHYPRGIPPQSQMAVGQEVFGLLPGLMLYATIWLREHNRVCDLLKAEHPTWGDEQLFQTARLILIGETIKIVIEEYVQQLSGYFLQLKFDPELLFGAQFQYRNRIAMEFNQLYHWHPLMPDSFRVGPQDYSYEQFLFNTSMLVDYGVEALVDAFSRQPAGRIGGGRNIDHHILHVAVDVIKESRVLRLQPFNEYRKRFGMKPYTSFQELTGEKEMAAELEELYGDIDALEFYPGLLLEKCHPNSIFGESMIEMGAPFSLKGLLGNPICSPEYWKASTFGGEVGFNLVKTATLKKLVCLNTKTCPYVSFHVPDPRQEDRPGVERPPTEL
Test: inhibition of COX-1-catalyzed oxidation of arachidonic acid
Format: biochemical
Details: at concentrations up to 1 mM

SMILES: Cc1nc2c(c(C)c1O)CNC(=O)N2 [compound 13]
- COX-1 inhibition (in words): not able to significantly inhibit COX-1
